“And” between values parts separate entries of the source, which are not always exact repeats. Equal values may be shown once.
What was measured:
Format in all cases: biochemical, horseradish
[1] = target: T1, HRP (Armoracia rusticana, UniProt P00433); assay: qualitative test as HRP substrate (generation of a fluorescent product with HRP and H2O2); conditions: with HRP and H2O2 in aqueous solution, result in words
T1 sequence (P00433 31-353): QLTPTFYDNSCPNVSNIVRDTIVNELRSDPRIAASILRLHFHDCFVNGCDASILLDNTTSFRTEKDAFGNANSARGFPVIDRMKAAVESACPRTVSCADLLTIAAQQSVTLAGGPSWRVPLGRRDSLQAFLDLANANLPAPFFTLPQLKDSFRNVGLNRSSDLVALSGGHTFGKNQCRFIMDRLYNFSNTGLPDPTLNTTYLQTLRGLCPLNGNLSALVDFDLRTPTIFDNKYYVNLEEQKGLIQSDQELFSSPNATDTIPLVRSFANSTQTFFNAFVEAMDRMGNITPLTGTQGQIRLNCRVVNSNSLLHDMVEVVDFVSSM
Protocol: The sample was filtered through a sintered glass filter to obtain a clear solution, the solvent evaporated and the residue dissolved in 5 ml DMF. The solution was then evaporated to dryness, dissolved in 1 ml. DMF, followed by a dilution with 4 ml buffer and an assay carried out as described previously employing 100 microliters of the substrate.

[2] = target: T2, horse radish peroxidase (Armoracia rusticana, UniProt P00433); assay: change in fluorescence of substrate with HRP and hydrogen peroxide over 60 seconds; conditions: substrate 800 μl, H2O2 100 μl, 60 second interval, pH 8
T2 sequence (P00433 31-353): T1 sequence (P00433 31-353)
Protocol: (§1) In the next assay, the fluorogenic precursor of Example I was employed. […] An assay solution was prepared comprising the […] compound of Example I, hydrogen peroxide, horse radish peroxidase, and buffer (0.1M phosphate, pH 8.0) and the change in fluorescence in the solution determined over a 60 second interval. The substrate solution which was added was 3.9 mg/100 ml concentration in buffer, the hydrogen peroxide was 9.×10^-4 M, the HRP solution was 6.6 ng/ml containing 0.5 mgBSA/ml and the buffer was 0.1M phosphate, pH 8. The following table indicates the results.

[3] = test system: horse radish peroxidase; assay: as above; conditions: HRP solution (6.6 ng/ml) 0 μl, substrate 800 μl, H2O2 100 μl, buffer 100 μl; 60 second interval, pH 8
Protocol: as §1

[4] = target: T3, HRP-antiPRP conjugate (Armoracia rusticana, UniProt P00433); assay: microtiter plate PRP immunoassay with HRP-antiPRP conjugate and fluorogenic substrate; conditions: 10 minute incubation at 37° C.; for Fluorescence with PRP: 50 ng/ml PRP; for Fluorescence without PRP: PBS buffer instead of PRP
T3 construct: purchased Sigma
T3 sequence (P00433 31-338 limits assumed): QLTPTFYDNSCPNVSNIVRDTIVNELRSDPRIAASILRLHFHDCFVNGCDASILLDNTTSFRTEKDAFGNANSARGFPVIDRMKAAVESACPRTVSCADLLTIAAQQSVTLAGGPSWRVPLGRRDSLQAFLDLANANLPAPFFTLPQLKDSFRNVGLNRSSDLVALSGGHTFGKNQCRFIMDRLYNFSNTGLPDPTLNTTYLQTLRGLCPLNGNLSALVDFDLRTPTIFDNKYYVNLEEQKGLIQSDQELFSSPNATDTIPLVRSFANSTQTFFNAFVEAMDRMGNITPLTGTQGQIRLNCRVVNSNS
Protocol: Microtiter plate wells were coated with a solution (250 μl/well) of an amine modified glucose oxidase (1 to 190 dilution, 7.6 mg/ml stock solution) and antibodies to polyribosephosphate (1:2000 dilution in 60 mM carbonate buffer, pH 9.6). After standing overnight, the wells were washed with PBS containing 0.05% Tween 20 (W/V).
A stock solution was prepared of the fluorogenic substrate of Example II. A 3.8 mg/10 ml DMF solution (1.22 mM) was diluted 1:10 with PBS buffer immediately before use. A substrate mixture was prepared containing 500 μl of the above stock solution, 694 μl of 1.8M glucose, 400 μl of a stock catalase solution and the volume brought to 2 ml with PBS buffer. The stock catalase solution (3.1-4 mg/ml) was prepared by dialysing catalase (C-100 Sigma) in PBS pH 7.2.
The following protocol was then employed for the assay. Into each microtiter well coated with amino glucose oxidase (see copending application serial No. 398,505, filed July 15, 1982) and antiPRP was added 100 μl of 50 ng/ml PRP or 100 μl of PBS buffer (pH 7.2) and the mixture incubated for one hour at room temperature. At the end of this time, 50 μl of HRP-antiPRP conjugate was added followed by another one hour incubation. At the end of this time, 100 μl of a substrate mixture was added, followed by a 10 minute incubation at 37° C. with shaking, after which time 200 μl of the incubation mixture was diluted with 1.8 ml, of 0.1M phosphate buffer (pH 8.0) and the fluorescence read.

[5] = HRP-antiPRP dilution 0 (no conjugate)

Cc1cc(Oc2ccc3cc(C(=O)O)c(=O)oc3c2)cc(Br)c1N [Example VI, 3-carboxy-7-(3'-methyl-4'-amino-5'-bromophenoxy)coumarin]
activity as HRP substrate [1]: active HRP substrate

Cc1cc(Oc2ccc3cc(C(=O)N[C@H]4C(O)O[C@H](CO)[C@@H](O)[C@@H]4O)c(=O)oc3c2)ccc1N (stereo partly shown) [Example V, glucosamine derivative of 3-carboxy-7-(3'-methyl-4'aminophenoxy)coumarin]
activity as HRP substrate [1]: active as an HRP substrate

Nc1ccc(Oc2ccc3cc(C(=O)O)c(=O)oc3c2)cc1 [Example I, 3-carboxy-7-(4'-aminophenoxy)coumarin]
ΔF ([2]; HRP solution (6.6 ng/ml) 20 μl, buffer 80 μl): 11.0 | ΔF ([2]; HRP solution (6.6 ng/ml) 50 μl, buffer 50 μl): 16.2 | ΔF ([2]; HRP solution (6.6 ng/ml) 100 μl, buffer 0 μl): 29.7 and 30.4 | ΔF [3]: 6.6

Cc1cc(Oc2ccc3cc(C(=O)O)c(=O)oc3c2)ccc1N [Example II, 3-carboxy-7-(3'-methyl-4'-aminophenoxy)coumarin]
Fluorescence with PRP [4, 5]: 2.2 | Fluorescence without PRP [4, 5]: 2.4 | Fluorescence with PRP ([4]; HRP-antiPRP dilution 1:80): 79.5 | Fluorescence without PRP ([4]; HRP-antiPRP dilution 1:80): 67.1 | Fluorescence with PRP ([4]; HRP-antiPRP dilution 1:320): 31.8 and 29.6 and 32.5 | Fluorescence without PRP ([4]; HRP-antiPRP dilution 1:320): 11.0 and 14.2 and 13.4 | Fluorescence with PRP ([4]; HRP-antiPRP dilution 1:1280): 13.8 | Fluorescence without PRP ([4]; HRP-antiPRP dilution 1:1280): 5.2

Cc1cc(Oc2ccc3cc(C(=O)NCCS(=O)(=O)O)c(=O)oc3c2)ccc1N [Example IV, taurine derivative of 3-carboxy-7-(3'-methyl-4'-aminophenoxy)coumarin]
activity as HRP substrate [1]: useful as a HRP substrate

O=C(O)CNc1ccc(Oc2ccc3cc(C(=O)O)c(=O)oc3c2)cc1 [Example III, 3-carboxy-7-(N-carboxymethyl 4'-aminophenoxy)coumarin]
activity as HRP substrate [1]: useful as an HRP substrate

Reference: patent publication US4857455A, “Method for the determination of peroxidase using fluorogenic substrates” (Syntex (U.S.A) Inc., priority 1982, dated 1989)
